This series is described as follows: Pharmacokinetics after intravenous and oral administration in rats. The class given is in vivo. To be noted: Rats; iv dosing; dose 1 mg/kg (0.5 for Ex. 1, 10, 11, 35; 0.48 for Ex. 24). On the procedure:
The LC/MS/MS system used in the analysis consists of an Agilent 1200 Series vacuum degasser, binary pump, well-plate autosampler, thermostatted column compartment, the Agilent G6430 Triple Quadrupole Mass Spectrometer with an electrosprayionization (ESI) source. Quantitative analysis was carried out using MRM mode. The parameters for MRM transitions are in the Table A.
An Agilent XDB-C18, 2.1×30 mm, 3.5 M column was used for the analysis. 5 L of the samples were injected. Analysis condition: The mobile phase was 0.1% formic acid in water (A) and 0.1% formic acid in methanol (B). The flow rate was 0.4 mL/min. And the gradient of Mobile phase was in the Table B.
Alternatively, an Agilent 6330 series LC/MS/MS spectrometer equipped with G1312A binary pumps, a G1367A autosampler and a G1314C UV detector were used in the analysis. An ESI source was used on the LC/MS/MS spectrometer. The analysis was done in positive ion mode as appropriate and the MRM transition for each analyte was optimized using standard solution. A Capcell MP-C18 100×4.6 mm I.D., […] column (Phenomenex, Torrance, Calif., USA) was used during the analysis. The mobile phase was 5 mM ammonia acetate, 0.1% MeOH in water (A): 5 mM ammonia acetate, 0.1% MeOH in acetonitrile (B) (70:30, v/v). The flow rate was 0.6 mL/min. Column was maintained at ambient temperature. 20 μL of the samples were injected.
The compounds disclosed herein are assessed in pharmacokinetic studies in mice, rats, dogs or monkeys. The compounds are administered as a water solution, 2% HPMC+1% TWEEN®80 in water solution, 5% DMSO+5% solutol in saline, 4% MC suspension or capsule. For the intravenous administration, the animals are generally given at 1 or 2 mg/kg dose. For the oral (p.o.) dosing, mice and rats are generally given 5 or 10 mg/kg dose, and dogs and monkeys are generally given 10 mg/kg dose. The blood samples (0.3 mL) are drawn at 0.25, 0.5, 1.0, 2.0, 3.0, 4.0, 6.0, 8.0, 12 and 24 h time points or 0.083, 0.25, 0.5, 1.0, 2.0, 4.0, 6.0, 8.0 and 24 h time points and centrifuged at 3,000 or 4000 rpm for 2 to 10 min. The plasma solutions are collected, stored at −20° C. or −70° C. until analyzed by LC/MS/MS as described above.
On to `CC[C@H](Nc1ncnc(N)c1-c1nc(C)no1)c1nc2cccc(F)c2c(=O)n1-c1ccccc1` [Ex. 39, (S)-2-(1-((6-amino-5-(3-methyl-1,2,4-oxadiazol-5-yl)pyrimidin-4-yl)amino)-propyl)-5-fluoro-3-phenylquinazolin-4(3H)-one], for which the CL/F (as a rule, clearance divided by bioavailability, as obtained after extravascular dosing) was 51.8 mL/min/kg.
The value for `CC[C@H](Nc1ncnc(N)c1-c1ncn(C)n1)c1nc2cccc(Cl)c2c(=O)n1-c1ccccc1` [Ex. 32, (S)-2-(1-((6-amino-5-(1-methyl-H-1,2,4-triazol-3-yl)pyrimidin-4-yl)amino)-propyl)-5-chloro-3-phenylquinazolin-4(3H)-one] was 43.3 mL/min/kg; that for `CCc1noc(-c2c(N)ncnc2N[C@@H](CC)c2nc3cccc(Cl)c3c(=O)n2C2CC2)n1` [Ex. 56, (S)-2-(1-((6-amino-5-(3-ethyl-1,2,4-oxadiazol-5-yl)pyrimidin-4-yl)amino)-propyl)-5-chloro-3-cyclopropylquinazolin-4(3H)-one] was 74.7 mL/min/kg.
Next, `Cc1noc(-c2c(N)ncnc2N[C@@H](C)c2nc3cccc(Cl)c3c(=O)n2C2CC2)n1` [Ex. 41, (S)-2-(1-((6-amino-5-(3-methyl-1,2,4-oxadiazol-5-yl)pyrimidin-4-yl)amino)-ethyl)-5-chloro-3-cyclopropylquinazolin-4(3H)-one]: 84.3 mL/min/kg; `CC[C@H](Nc1ncnc(N)c1-c1ccon1)c1nc2cccc(Cl)c2c(=O)n1C1CC1` [Ex. 14, (S)-2-(1-((6-amino-5-(isoxazol-3-yl)pyrimidin-4-yl)amino)propyl)-5-chloro-3-cyclopropylquinazolin-4(3H)-one]: 46.7 mL/min/kg; `CC[C@@H](Nc1ncnc(N)c1-c1ccon1)c1nc2cccc(Cl)c2c(=O)n1C1CC1` [Ex. 49, (R)-2-(1-((6-amino-5-(isoxazol-3-yl)pyrimidin-4-yl)amino)propyl)-5-chloro-3-cyclopropylquinazolin-4(3H)-one]: 85.3 mL/min/kg.
The value for `CC[C@H](Nc1ncnc(N)c1-c1nnn(C)n1)c1nc2cccc(F)c2c(=O)n1-c1ccccc1` [Ex. 43, (S)-2-(1-((6-amino-5-(2-methyl-2H-tetrazol-5-yl)pyrimidin-4-yl)amino)-propyl)-5-fluoro-3-phenylquinazolin-4(3H)-one] was 36.8 mL/min/kg.
`CC[C@H](Nc1ncnc(N)c1-c1nnc(C)o1)c1nc2cccc(F)c2c(=O)n1-c1ccccc1` [Ex. 40, (S)-2-(1-((6-amino-5-(5-methyl-1,3,4-oxadiazol-2-yl)pyrimidin-4-yl)amino)-propyl)-5-fluoro-3-phenylquinazolin-4(3H)-one] showed a CL/F of 57.3 mL/min/kg.
Compound `CC[C@H](Nc1ncnc(N)c1-c1nnc(C)o1)c1nc2cccc(C)c2c(=O)n1-c1ccccc1` [Ex. 38, (S)-2-(1-((6-amino-5-(5-methyl-1,3,4-oxadiazol-2-yl)pyrimidin-4-yl)amino)-propyl)-5-methyl-3-phenylquinazolin-4(3H)-one] registered a CL/F of 71.3 mL/min/kg.
The value for `CC[C@H](Nc1ncnc(N)c1-c1noc(C)n1)c1nc2cccc(Cl)c2c(=O)n1C1CC1` [Ex. 12, (S)-2-(1-((6-amino-5-(5-methyl-1,2,4-oxadiazol-3-yl)pyrimidin-4-yl)amino)-propyl)-5-chloro-3-cyclopropylquinazolin-4(3H)-one] was 31.8 mL/min/kg; that for `CC[C@H](Nc1ncnc(N)c1-c1nc(C)no1)c1nc2cccc(Cl)c2c(=O)n1[C@@H]1C[C@@H]1F` [Ex. 62] was 71.8 mL/min/kg.
The value for `CC[C@H](Nc1ncnc(N)c1-c1noc(C)n1)c1nc2cccc(Cl)c2c(=O)n1-c1ccccc1` [Ex. 13, (S)-2-(1-((6-amino-5-(5-methyl-1,2,4-oxadiazol-3-yl)pyrimidin-4-yl)amino)-propyl)-5-chloro-3-phenylquinazolin-4(3H)-one] was 72.5 mL/min/kg; that for `CC[C@H](Nc1ncnc(N)c1-c1nc(C)no1)c1nc2ccccc2c(=O)n1-c1ccccc1F` (single isomer, unassigned) [Ex. 22] was 159 mL/min/kg.

The values above are taken from patent publication US9518046B2 (Calitor Sciences, LLC, priority 2015, dated 2016).
